Data published in patent US20070224287A1, “Methods of Modulating Inflammatory Reactions by Modulating Xanthine Oxidoreductase Activity” (priority 2003, published 2007).

Columns and labels:
[1] = test system: patients with chronic heart failure (CHF), cardiomyopathy, or undergoing heart surgery; conditions: cited from earlier work
[2] = test system: Id-2; experiment: Western immunoblot of Id-2 from BALF cells; type: in vivo, rat; conditions: 24 hours following cytokine insufflation, allopurinol vs control fed rats
Protocol: Western immunoblot analysis of the differential inhibitor, Id-2, from BALF cells obtained 24 hours following cytokine insufflation in allopurinol (A) or control (C) fed rats.

[3] = test system: vascular endothelial function; conditions: Type 1 and Type 2 diabetes in humans; cited from earlier work
[4] = test system: IL-1 and IFN-γ insufflated rats; experiment: Differential and total inflammatory cell counts in BALF after cytokine insufflation; type: in vivo, rat; conditions: diet before IL-1 and IFN-γ insufflation, 24 hours later; allopurinol 50 mg/Kg for seven days (FIG. 4c)
Text: Intratracheal cytokine insufflation.

[5] = biological target: T1, XOR (Homo sapiens, UniProt P47989); conditions: COPD; cited from earlier work
T1 construct: host or cells: bronchoalveolar lavage fluid of COPD patients
T1 sequence (P47989 whole entry): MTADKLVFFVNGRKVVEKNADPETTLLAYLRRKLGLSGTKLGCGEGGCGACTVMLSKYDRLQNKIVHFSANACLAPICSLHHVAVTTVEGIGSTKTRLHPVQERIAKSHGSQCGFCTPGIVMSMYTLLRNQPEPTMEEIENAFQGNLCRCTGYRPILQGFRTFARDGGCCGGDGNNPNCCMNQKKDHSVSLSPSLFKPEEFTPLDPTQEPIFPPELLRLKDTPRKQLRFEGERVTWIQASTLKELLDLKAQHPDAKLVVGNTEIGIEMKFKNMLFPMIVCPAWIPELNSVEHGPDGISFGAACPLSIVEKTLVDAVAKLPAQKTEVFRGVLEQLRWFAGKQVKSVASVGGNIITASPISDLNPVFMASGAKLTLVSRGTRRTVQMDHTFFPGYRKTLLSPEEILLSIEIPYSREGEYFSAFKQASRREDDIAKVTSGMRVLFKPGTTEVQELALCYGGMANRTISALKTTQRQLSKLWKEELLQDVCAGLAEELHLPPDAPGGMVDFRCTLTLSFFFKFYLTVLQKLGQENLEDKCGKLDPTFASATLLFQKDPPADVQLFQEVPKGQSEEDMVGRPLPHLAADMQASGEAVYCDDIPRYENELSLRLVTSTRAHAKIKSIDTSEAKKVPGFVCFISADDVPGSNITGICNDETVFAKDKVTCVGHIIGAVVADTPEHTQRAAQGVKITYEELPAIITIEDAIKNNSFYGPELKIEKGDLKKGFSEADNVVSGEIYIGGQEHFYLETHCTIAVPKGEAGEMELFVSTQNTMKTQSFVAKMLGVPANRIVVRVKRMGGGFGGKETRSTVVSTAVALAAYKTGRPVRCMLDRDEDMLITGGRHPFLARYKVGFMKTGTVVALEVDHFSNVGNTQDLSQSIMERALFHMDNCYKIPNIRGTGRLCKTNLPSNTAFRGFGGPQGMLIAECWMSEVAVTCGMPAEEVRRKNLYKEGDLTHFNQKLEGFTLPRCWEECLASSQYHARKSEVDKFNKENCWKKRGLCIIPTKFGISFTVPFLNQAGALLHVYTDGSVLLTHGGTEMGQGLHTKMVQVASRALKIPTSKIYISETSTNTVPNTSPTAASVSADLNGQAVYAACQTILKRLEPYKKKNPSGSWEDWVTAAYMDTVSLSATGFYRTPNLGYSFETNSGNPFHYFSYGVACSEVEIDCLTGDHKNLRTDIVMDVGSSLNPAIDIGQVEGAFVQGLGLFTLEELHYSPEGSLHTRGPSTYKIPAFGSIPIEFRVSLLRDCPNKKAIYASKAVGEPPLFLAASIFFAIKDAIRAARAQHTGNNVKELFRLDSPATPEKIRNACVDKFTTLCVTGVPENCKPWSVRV

[6] = test system: leukocyte-chemokine expression and leukocyte accumulation; conditions: endotoxemic model of liver injury; cited from earlier work
[7] = test system: alveolar cells; experiment: TUNEL staining and morphometric analysis; type: in vivo, rat; conditions: prior feeding with diet, IL-1 and IFN-γ insufflation 24 h before (FIG. 4f,g)
Protocol: TUNEL staining and morphometric analysis. The TUNEL assay was used to detect apoptotic cells in fixed lung sections. After fixation with 4% buffered formalin, lung tissue sections were embedded in paraffin, sectioned at […], and mounted on glass slides. Slides were de-paraffinized, rehydrated for 10 min in PBS, and treated with 0.002% proteinase K (Sigma) in distilled water for 5 to 15 min at room temperature. Terminal deoxynucleotidyl transferase (TdT) was used for labeling of DNA nicks using the TACS kit (Trevigen, Inc., Gaithersburg, Md.). Counterstaining with DAPI was done to stain nuclear DNA and with Rhodamine coupled wheat germ agglutinin (WGA, Molecular Probes, Eugene, Oreg.) to stain the structural architecture. TUNEL positive cell staining appeared as green fluorescence in the nuclei of clearly defined alveolar cells. Background nuclear staining appeared as blue while the tissue architecture was red.

[8] = test system: caspase-3; experiment: Activated caspase-3 detection in lung sections; type: in vivo, rat; conditions: prior feeding with diet, IL-1 and IFN-γ insufflation 24 hours before (FIG. 4h)
Protocol: Activated caspase-3 detection. Detection of the cleaved, mature, activated caspase-3 was performed on paraffin-embedded sections using the Cell Signaling Technology, Inc (Beverly, Mass.) protocol. First, paraffin-embedded slides were deparaffinized and rehydrated. Incubation with 1% H2O2 for 10 min blocked endogenous peroxidase activity. For antigen unmasking, the tissue sections were microwaved in 10 mM sodium citrate buffer (pH 6.0) for 10 min. Next, the sections were blocked in 5% goat serum for 1 hr at room temperature. Slides were then incubated at 4° C. overnight with caspase-3 antibody specific for the cleaved, mature, form of caspase-3 diluted 1:200 in phosphate buffered saline (Asp-175; Cell Signaling Technology, Inc). This was followed by a 30 min incubation with a 1:200 dilution of goat anti-rabbit antibody (PK-6101; Vector Laboratories, Burlingame, Calif.). A subsequent 30 min incubation with VectaStain Elite ABC reagent (PK-6101; Vector Laboratories) ensued. This reaction was followed by the addition of the DAB substrate kit for peroxidase (SK-4100; Vector Labs). The slides were finally counterstained with hematoxylin (H-3401; Vector Labs), dehydrated and mounted. Caspase-3 positive cells were quantitated by counting the percent positive alveolar cells per field under 100× magnification.

[9] = test system: acute gastric mucosal lesions; conditions: rats; cited from earlier work
[10] = test system: IL-1 and IFN-γ insufflated rats; experiment: Lung histology (H&E) after cytokine insufflation; conditions: diet before IL-1 and IFN-γ insufflation, 24 hours later (FIG. 4d)
[11] = test system: endothelial injury in the lungs (and gut); conditions: heavy smokers and rats subjected to heavy smoking conditions; cited from earlier work
[12] = biological target: T2, MNP XOR (Rattus norvegicus, UniProt P22985); experiment: Cell transfer experiment: BALF cells treated in vitro and insufflated into control rats; type: in vivo; conditions: BALF cells exposed 15 min to 150 μM allopurinol in vitro, 2×10^6 cells insufflated into control rats, BALF 24 hours later, p<0.05 vs control cells (FIG. 5c)
T2 construct: endogenous in cells; host or cells: BALF cells / adherent mononuclear phagocytes from IL-1 and IFN-gamma insufflated Sprague-Dawley rats
T2 sequence (P22985 whole entry): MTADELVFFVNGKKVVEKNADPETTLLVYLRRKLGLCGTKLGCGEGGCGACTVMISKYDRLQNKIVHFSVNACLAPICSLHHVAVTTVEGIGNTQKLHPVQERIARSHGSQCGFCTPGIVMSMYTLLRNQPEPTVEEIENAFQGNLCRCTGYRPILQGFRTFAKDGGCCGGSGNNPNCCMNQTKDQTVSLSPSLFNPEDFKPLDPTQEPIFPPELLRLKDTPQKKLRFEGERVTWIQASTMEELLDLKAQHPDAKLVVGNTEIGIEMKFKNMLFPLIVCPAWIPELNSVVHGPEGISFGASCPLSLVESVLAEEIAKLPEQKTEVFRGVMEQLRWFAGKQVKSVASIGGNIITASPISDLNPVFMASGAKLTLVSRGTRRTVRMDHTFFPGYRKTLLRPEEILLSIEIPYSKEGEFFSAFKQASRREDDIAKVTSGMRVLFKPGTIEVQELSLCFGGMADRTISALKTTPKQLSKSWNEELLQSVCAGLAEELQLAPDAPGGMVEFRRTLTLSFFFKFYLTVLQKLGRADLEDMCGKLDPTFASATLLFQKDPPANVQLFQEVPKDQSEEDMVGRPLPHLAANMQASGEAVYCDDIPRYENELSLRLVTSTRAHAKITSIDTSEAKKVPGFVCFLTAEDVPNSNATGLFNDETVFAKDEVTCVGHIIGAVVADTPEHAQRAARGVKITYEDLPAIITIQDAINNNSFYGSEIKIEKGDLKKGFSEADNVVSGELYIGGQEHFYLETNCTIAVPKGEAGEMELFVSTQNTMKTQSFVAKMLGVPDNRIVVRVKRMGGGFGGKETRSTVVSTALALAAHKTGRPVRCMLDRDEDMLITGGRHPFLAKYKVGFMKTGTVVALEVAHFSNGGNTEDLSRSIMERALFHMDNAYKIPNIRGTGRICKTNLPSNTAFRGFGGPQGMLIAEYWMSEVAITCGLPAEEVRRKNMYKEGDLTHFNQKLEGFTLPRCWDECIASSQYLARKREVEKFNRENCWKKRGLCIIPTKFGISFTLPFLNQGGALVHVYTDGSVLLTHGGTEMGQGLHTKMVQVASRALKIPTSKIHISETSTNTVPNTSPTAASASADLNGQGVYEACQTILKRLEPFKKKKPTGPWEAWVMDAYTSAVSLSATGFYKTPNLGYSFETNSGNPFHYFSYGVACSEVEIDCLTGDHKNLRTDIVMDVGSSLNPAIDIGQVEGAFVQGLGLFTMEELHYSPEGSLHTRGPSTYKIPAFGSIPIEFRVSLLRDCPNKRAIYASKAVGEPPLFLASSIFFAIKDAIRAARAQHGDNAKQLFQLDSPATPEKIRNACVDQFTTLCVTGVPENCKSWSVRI
Protocol: A lung inflammatory response was induced in rats with IL-1 and IFN-γ insufflation. After 8 hours, cells from BALF were recovered from each rat in PBS, pooled, and quantitated. Cells were then divided into two equivalent fractions and exposed to 1 mM KOH or 1 mM KOH with 150 μM allopurinol in vitro. The neutral pH of the PBS and cell mixture was unchanged by adding 1 mM KOH. After 15 min, the cells were washed and resuspended in PBS. Subsequently, 2×10^6 of control or allopurinol treated cells were insufflated into control rats. 24 hours after cell insufflation, BALF cells were recovered from these rats, Wright's stained and quantitated. […] Data are the mean and standard error of 6 rats in each group.
To determine whether XOR induction in MNP could contribute to lung inflammation, we performed a cell transfer experiment. We induced a pulmonary inflammatory response in rats with IL-1 and IFN-γ insufflation, obtained these cells by bronchoalveolar lavage 8 hours later, and then treated these cells with either allopurinol or the vehicle for allopurinol in vitro. After a 15 min exposure to allopurinol or the vehicle, the cells were washed, resuspended in PBS, and then insufflated into control rats. Subsequently, cells were harvested from the BALF of these control rats, stained, and quantitated.

[13] = test system: sarcoidosis; conditions: cited from earlier work
[14] = test system: colonic leukocyte-chemokine expression and leukocyte accumulation; conditions: mice; cited from earlier work
[15] = test system: pancreatic fibrosis; conditions: rats treated with diethyldithiocarbamate; cited from earlier work
[16] = test system: NADPH oxidase; conditions: even at relatively high doses; cited from earlier work
[17] = test system: superoxide generation; conditions: streptozotocin induced diabetes in mice; cited from earlier work
[18] = test system: PMN accumulation in the eye; conditions: uveitis, even after the onset of disease; cited from earlier work
[19] = test system: pancreatitis and vascular injury; conditions: L-arginine induced pancreatic inflammation in rats; cited from earlier work
[20] = test system: vascular injury; conditions: mice, hemorrhagic shock or LPS injection, prior inhibition of XOR; cited from earlier work

SMILES: Oc1ncnc2[nH]ncc12 [allopurinol]
- effect in patients with chronic heart failure, cardiomyopathy, or undergoing heart surgery [1]: cardio-protective effect
- Id-2 from BALF cells (Western immunoblot) [2]: XOR dependent regulations of MNP Id-2 levels
- vascular endothelial function [3]: protective
- accumulation of inflammatory cells (BALF cell numbers) [4]: reduced
- XOR and evidence of XOR derived oxidative stress [5]: reduced
- leukocyte-chemokine expression and leukocyte accumulation [6]: blocked
- development of alveolar apoptosis (TUNEL positive alveolar nuclei) [7]: attenuated
- activation of caspase-3 in cytokine insufflated rat lungs [8]: blocked
- markers of leukocyte infiltration in the gut [9]: decreased
- progression of experimentally induced acute gastric mucosal lesions [9]: blocked
- histologic evidence of airway and perivascular inflammation [10]: attenuated
- endothelial injury in the lungs (and gut) [11]: reduce
- recovery of neutrophils in the BALF after insufflation of treated BALF cells [12]: attenuated
- pulmonary sarcoidosis attributed to BCG vaccination ([13]; human): completely regressed
- sarcoidosis outcome ([13]; patients with sarcoidosis): induce remission
- I/R induced colonic leukocyte-chemokine expression and leukocyte accumulation [14]: markedly reduced
- pancreatic fibrosis [15]: blocked
- scavenging of ROS generated from the NADPH oxidase [16]: fails to scavenge
- superoxide generation [17]: normalized
- capacity to reduce PMN accumulation in the eye [18]: as effective as steroid treatment
- evidence of pancreatitis and vascular injury [19]: blocked
- evidence of vascular injury [20]: dramatically attenuated
